Several values for one entry are separate records, joined by “and”; a condition that tells them apart may be missing. Identical values can stand only once. Like-named read-outs stand apart in the source and are kept apart here. Marks after values point to notes of the source that are not given here.
Tests used:
[1] = test system: gentamicin-induced AKI in zebrafish larvae; assay: Gentamicin-induced AKI in zebrafish larvae (zfAKI assay), Kaplan-Meier survival; assay type: in vivo; conditions: two different doses, compared to the untreated control
Source text: The gentamicin-induced AKI in zebrafish larvae (zfAKI assay), recapitulates injury and proliferation-based repair in mammalian AKI, but allows for higher throughput analysis of compound efficacy in AKI than mouse models. As fish are soaked in compounds, this assay is not subject to drug delivery and absorption problems that occur in early drug discovery in mice. This assay was used as a primary screening assay with the throughput being increased.

[2] = Plasma pharmacokinetics after a single intraperitoneal dose; assay type: in vivo, male CD1 mice; conditions: for plasma concentrations quantifiable up to: LLOQ 10.38 ng/mL; for concentration at 0.08 hr / concentration at 0.25 hr / concentration at 0.5 hr / concentration at 1 hr / concentration at 2 hr / concentration at 4 hr / concentration at 8 hr / concentration at 24 hr: intraperitoneal
Method: The objective of this example was to investigate the plasma pharmacokinetics of UPHH-000171 following a single intraperitoneal dose administration to male CD1 mice at 10 and 50 mg/kg. Eighteen male mice were divided in to two groups with nine animals in each group,
Animals in Group 1 and Group 2 were administered with solution formulation of UPHH-000171 in 5% NMP, 25% Solutol HS-15 and 70% normal saline intraperitoneally at 10 and 50 mg/kg dose, respectively.
The blood samples were collected from set of three mice at each time point in labeled micro centrifuge tube containing K2EDTA solution as anticoagulant at Pre-dose, 0.08, 0.25, 0.5, 1, 2, 4, 8 and 24 hr. Plasma samples were separated by centrifugation of whole blood and stored below −70±10° C. until bioanalysis. All samples were processed for analysis by protein precipitation using acetonitrile and analyzed with fit-for-purpose LC-MS/MS method (LLOQ=10.38 ng/mL). Pharmacokinetic parameters were calculated using the non-compartmental analysis tool of Phoenix WinNonlin® (Version 7.0). Mean pharmacokinetic parameters are summarized below: […]

HDAC8 = molecular target: T1, HDAC8 (Homo sapiens, UniProt Q9BY41); assay: Cellular thermal shift assay (CETSA) for HDAC8 binding; conditions: compared to a control with no compound, FIG. 1
T1 construct: CETSA uses cell lysates heated to different temperatures and quantifies the target protein in the soluble fraction by western blot; endogenous in cells; host or cells: cell lysate
T1 sequence (Q9BY41 1-377): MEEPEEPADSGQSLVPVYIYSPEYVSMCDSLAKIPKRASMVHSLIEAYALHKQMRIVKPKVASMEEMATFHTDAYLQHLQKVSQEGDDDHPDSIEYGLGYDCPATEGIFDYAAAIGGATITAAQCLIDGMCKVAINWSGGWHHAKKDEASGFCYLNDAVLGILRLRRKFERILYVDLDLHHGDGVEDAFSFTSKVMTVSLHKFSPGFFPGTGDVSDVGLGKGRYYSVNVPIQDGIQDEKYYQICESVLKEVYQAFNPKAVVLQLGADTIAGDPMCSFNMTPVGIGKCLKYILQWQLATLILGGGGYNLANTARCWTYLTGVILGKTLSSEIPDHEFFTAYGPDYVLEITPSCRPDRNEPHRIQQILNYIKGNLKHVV
Source text: Cellular thermal shift assay (CETSA) was developed from the same principles of ligand induced thermal stability assays (TSA) of proteins. During TSA, purified proteins are heated in the absence or presence of ligand and then quickly cooled. Proteins that are bound to ligand are more thermally stable than their unbound counterparts, and these “thermal shifts” can be detected by various methods. CETSA uses cell lysates heated to different temperatures and quantifies the target protein in the soluble fraction by western blot. CETSA is a direct measurement of […] through the measurement of the biophysical properties that stabilized the protein-ligand complex under thermal denaturation. The UPHH-00171 compound was tested in the CETSA assay, specifically for HDAC8 binding.

[3] = male, CD1, mouse, 10 mg/kg IP, plasma
[4] = male, CD1, mouse, 50 mg/kg IP, plasma

COc1ccc(Cn2ccc3ccc(C(=O)NS(C)(=O)=O)cc32)cc1 [UPHH-000171, 1-(4-methoxybenzyl)-N-(methylsulfonyl)-1H-indole-6-carboxamide]
survival in zfAKI assay [1]: increase survival
Plasma Concentration, individual animal ([2]; 10 mg/kg IP, 0.08 hr): 9871.25 ng/mL and 2877.79 ng/mL and 7508.44 ng/mL
Plasma Concentration, individual animal ([2]; 10 mg/kg IP, 0.25 hr): 28861.97 ng/mL and 28672.95 ng/mL
Plasma Concentration, individual animal ([2]; 10 mg/kg IP, 0.5 hr): 41628.22 ng/mL and 36468.73 ng/mL
Plasma Concentration, individual animal ([2]; 10 mg/kg IP, 1 hr): 49594.52 ng/mL and 19264.72 ng/mL and 34912.30 ng/mL
Plasma Concentration, individual animal ([2]; 10 mg/kg IP, 2 hr): 46853.15 ng/mL and 43408.40 ng/mL
Plasma Concentration, individual animal ([2]; 10 mg/kg IP, 4 hr): 47512.89 ng/mL and 73497.85 ng/mL and 31815.34 ng/mL
Plasma Concentration, individual animal ([2]; 10 mg/kg IP, 8 hr): 20138.85 ng/mL and 29805.54 ng/mL
Plasma Concentration, individual animal ([2]; 10 mg/kg IP, 24 hr, animal 7 excluded as an outlier): 2930.59^e ng/mL and 131.01 ng/mL and 68.44 ng/mL
plasma concentrations quantifiable up to ([2]; 10 mg/kg IP): up to 24 hr
Plasma Concentration, individual animal ([2]; 50 mg/kg IP, 0.08 hr): 59305.08 ng/mL and 90638.28 ng/mL
Plasma Concentration, individual animal ([2]; 50 mg/kg IP, 0.25 hr): 31701.46 ng/mL and 171000.65 ng/mL and 182938.71 ng/mL
Plasma Concentration, individual animal ([2]; 50 mg/kg IP, 0.5 hr): 137922.52 ng/mL and 96505.03 ng/mL and 47522.98 ng/mL
Plasma Concentration, individual animal ([2]; 50 mg/kg IP, 1 hr): 218799.23 ng/mL and 236020.35 ng/mL
Plasma Concentration, individual animal ([2]; 50 mg/kg IP, 2 hr): 93162.33 ng/mL and 195094.83 ng/mL and 235858.27 ng/mL
Plasma Concentration, individual animal ([2]; 50 mg/kg IP, 4 hr): 106201.99 ng/mL and 115510.21 ng/mL
Plasma Concentration, individual animal ([2]; 50 mg/kg IP, 8 hr): 93195.14 ng/mL and 75070.05 ng/mL
Plasma Concentration, individual animal ([2]; 50 mg/kg IP, 24 hr): 1407.79 ng/mL and 391.49 ng/mL and 1081.42 ng/mL
plasma concentrations quantifiable up to ([2]; 50 mg/kg IP): up to 24 hr
dose related increase in plasma exposure (AUClast) ([2]; from 10 mg/kg to 50 mg/kg IP): 3 fold
concentration at 0.08 hr ([2]; male, CD1, mouse, plasma, 10 mg/kg, 10 mg/kg IP, 0.08 hr, read-out: Plasma Concentration, Mean): 6.75 µg/mL
concentration at 0.25 hr ([2]; male, CD1, mouse, plasma, 10 mg/kg, 10 mg/kg IP, 0.25 hr, read-out: Plasma Concentration, Mean): 30.2 µg/mL
concentration at 0.25 hr ([2]; male, CD1, mouse, plasma, 10 mg/kg, 10 mg/kg IP, 0.25 hr, read-out: Plasma Concentration, individual animal): 33 µg/mL
concentration at 0.5 hr ([2]; male, CD1, mouse, plasma, 10 mg/kg, 10 mg/kg IP, 0.5 hr, read-out: Plasma Concentration, Mean): 41.2 µg/mL
concentration at 0.5 hr ([2]; male, CD1, mouse, plasma, 10 mg/kg, 10 mg/kg IP, 0.5 hr, read-out: Plasma Concentration, individual animal): 45.6 µg/mL
concentration at 1 hr ([2]; male, CD1, mouse, plasma, 10 mg/kg, 10 mg/kg IP, 1 hr, read-out: Plasma Concentration, Mean): 34.6 µg/mL
concentration at 2 hr ([2]; male, CD1, mouse, plasma, 10 mg/kg, 10 mg/kg IP, 2 hr, read-out: Plasma Concentration, Mean): 47.9 µg/mL
concentration at 2 hr ([2]; male, CD1, mouse, plasma, 10 mg/kg, 10 mg/kg IP, 2 hr, read-out: Plasma Concentration, individual animal): 53.6 µg/mL
concentration at 4 hr ([2]; male, CD1, mouse, plasma, 10 mg/kg, 10 mg/kg IP, 4 hr, read-out: Plasma Concentration, Mean): 50.9 µg/mL
concentration at 8 hr ([2]; male, CD1, mouse, plasma, 10 mg/kg, 10 mg/kg IP, 8 hr, read-out: Plasma Concentration, Mean): 28.4 µg/mL
concentration at 8 hr ([2]; male, CD1, mouse, plasma, 10 mg/kg, 10 mg/kg IP, 8 hr, read-out: Plasma Concentration, individual animal): 35.1 µg/mL
concentration at 24 hr ([2]; male, CD1, mouse, plasma, 10 mg/kg, 10 mg/kg IP, 24 hr, average of two values): 0.0997 µg/mL
concentration at 0.08 hr ([2]; male, CD1, mouse, plasma, 50 mg/kg, 50 mg/kg IP, 0.08 hr, read-out: Plasma Concentration, Mean): 79.6 µg/mL
concentration at 0.08 hr ([2]; male, CD1, mouse, plasma, 50 mg/kg, 50 mg/kg IP, 0.08 hr, read-out: Plasma Concentration, individual animal): 89 µg/mL
concentration at 0.25 hr ([2]; male, CD1, mouse, plasma, 50 mg/kg, 50 mg/kg IP, 0.25 hr, read-out: Plasma Concentration, Mean): 129 µg/mL
concentration at 0.5 hr ([2]; male, CD1, mouse, plasma, 50 mg/kg, 50 mg/kg IP, 0.5 hr, read-out: Plasma Concentration, Mean): 94 µg/mL
concentration at 1 hr ([2]; male, CD1, mouse, plasma, 50 mg/kg, 50 mg/kg IP, 1 hr, read-out: Plasma Concentration, Mean): 228 µg/mL
concentration at 1 hr ([2]; male, CD1, mouse, plasma, 50 mg/kg, 50 mg/kg IP, 1 hr, read-out: Plasma Concentration, individual animal): 229 µg/mL
concentration at 2 hr ([2]; male, CD1, mouse, plasma, 50 mg/kg, 50 mg/kg IP, 2 hr, read-out: Plasma Concentration, Mean): 175 µg/mL
concentration at 4 hr ([2]; male, CD1, mouse, plasma, 50 mg/kg, 50 mg/kg IP, 4 hr, read-out: Plasma Concentration, Mean): 116 µg/mL
concentration at 4 hr ([2]; male, CD1, mouse, plasma, 50 mg/kg, 50 mg/kg IP, 4 hr, read-out: Plasma Concentration, individual animal): 128 µg/mL
concentration at 8 hr ([2]; male, CD1, mouse, plasma, 50 mg/kg, 50 mg/kg IP, 8 hr, read-out: Plasma Concentration, Mean): 90.1 µg/mL
concentration at 8 hr ([2]; male, CD1, mouse, plasma, 50 mg/kg, 50 mg/kg IP, 8 hr, read-out: Plasma Concentration, individual animal): 102 µg/mL
concentration at 24 hr ([2]; male, CD1, mouse, plasma, 50 mg/kg, 50 mg/kg IP, 24 hr): 0.96 µg/mL
AUC(0-t) [2, 3]: 558 µg·h/mL
Cmax [2, 3]: 50.9 µg/mL
Tmax [2, 3]: 4 h
AUC(0-inf) [2, 4]: 1770 µg·h/mL
AUC(0-t) [2, 4]: 1760 µg·h/mL
Cmax [2, 4]: 228 µg/mL
Tmax [2, 4]: 1 h
thermal stability of HDAC8 in CETSA (HDAC8; listed as UPHH171): increased thermal stability
thermal stability of HDAC8 in CETSA (HDAC8; listed as UPHH-00171): increase in thermal stability

Reference: patent US12606557B2, “Substituted indoles with inhibitory activity” (UNIVERSITY OF PITTSBURGH—OF THE COMMONWEALTH SYSTEM OF …, priority 2020, dated 2026)
